Values of other authors as cited in patent US12447174B2, “Microdaily EMF protects against oxidative and inflammatory damage, and acute and late adverse effects of EMF radiation” (priority 2021, dated 2025).
“Also recorded” adds a separate entry of the source.

What was measured:
male heavy smokers = conditions: beta-carotene alone
[1] = tested on: hippocampus and cerebellum of rats; conditions: RF-EMF 900 MHz 60 min/day for 21 days
porcine blood platelets = conditions: 1 KHz, 220 V/m, 30 and 60 minutes
[2] = tested on: microglia cells in culture
[3] = tested on: workers chronically exposed to ELF-EMF radiation from high voltage electricity
[4] = tested on: rats exposed to 900 MHz radiation; conditions: compared to EMF irradiated animals not receiving luteolin
N9 microglia cells = N9 microglia cells in culture
heart disease = conditions: humans
[5] = tested on: patients with Alzheimer's disease
rats = conditions: EMF radiation emitted from mobile phones, supplementation
hippocampus of rats = conditions: prenatal exposure to 900 MHz EMF radiation
[6] = tested on: Human embryonic kidney cells (HEK293); conditions: HEK293, 2.4 GHz for 1 h, treatment before exposure
kidney of rats = conditions: 900 MHz

Compound: CC1=C(/C=C/C(C)=C/C=C/C(C)=C/C=C/C=C(C)/C=C/C=C(C)/C=C/C2=C(C)CCCC2(C)C)C(C)(C)CCC1 [beta-carotene]
- risk of lung cancer (male heavy smokers): increased the risk of lung cancer

Compound: Nc1nc2ncc(CNc3ccc(C(=O)N[C@@H](CCC(=O)O)C(=O)O)cc3)nc2c(=O)[nH]1 [folic acid]
- reduction in pyramidal and granular cells in hippocampus and dentate gyres and Purkinje cell number in cerebellum [1]: decreased these changes

Compound: vitamin A
- EMF-induced increase in malondialdehyde (MDA) levels (porcine blood platelets): significantly attenuated such changes; also recorded: significantly attenuated this damage

Compound: COc1cc(/C=C/C(=O)CC(=O)/C=C/c2ccc(O)c(OC)c2)ccc1O [Curcumin]
- EMF-induced elevation of pro-inflammatory cytokines [2]: prevented
- EMF-induced reduced phagocytic activity [2]: prevented

Compound: Oc1ccc(C=Cc2cc(O)cc(O)c2)cc1 [resveratrol]
- increased oxidative stress (damage) from ELF-EMF radiation [3]: reduced this damage

Compound: O=c1cc(-c2ccc(O)c(O)c2)oc2cc(O)cc(O)c12 [luteolin]
- numbers of Leydig cells, primary spermatocytes, and spermatids [4]: enhanced the number of these cells

Compound: CC(C)(C)c1nc2c3cc[nH]c(=O)c3c3cc(F)ccc3c2[nH]1 [pyridone 6]
- EMF radiation induced inflammatory responses (N9 microglia cells): suppressed EMF radiation induced inflammatory responses

Compound: Vitamin E
- effect in heart disease on primary and most secondary outcomes (heart disease): ineffective
- rate of decline in cognitive function ([5]; early phase of Alzheimer's disease): reduced the rate of decline in cognitive function
- treatment effect in Alzheimer's disease ([5]; patients with Alzheimer's disease): ineffective

Compound: vitamin D
- EMF radiation impaired immune function (rats): mitigated

Compound: omega-3-fatty acids
- EMF radiation-induced neuronal damage in the hippocampus (hippocampus of rats): prevented EMF radiation-induced neuronal damage

Compound: [Se] [selenium]
- EMF radiation-induced biochemical changes (MDA, SOD, glutathione peroxidase, apoptosis, caspase-3, Bcl2) [6]: reduced such EMF radiation-induced biochemical changes

Compound: COc1ccc2[nH]cc(CCNC(C)=O)c2c1 [melatonin]
- EMF radiation-induced neuronal damage in the hippocampus (hippocampus of rats): prevented EMF radiation-induced neuronal damage
- EMF radiation induced oxidative damage in the kidney (kidney of rats): prevented
